According to US20220289708A1, “SUBSTITUTED N-PHENYL URACILS, SALTS THEREOF AND THEIR USE AS HERBICIDAL AGENTS” (Bayer Aktiengesellschaft, priority 2019, published 2022):

Key:
Type in all cases: in vivo
Oryza sativa = assay: Post-emergence crop plant compatibility; settings: application rate 5 g/ha
Description: a. Post-Emergence Herbicidal Action and Crop Plant Compatibility
Seeds of monocotyledonous and dicotyledonous weeds and crop plants were placed in sandy loam in plastic or wood-fiber pots, covered with soil and cultivated in a greenhouse under controlled growth conditions. 2 to 3 weeks after sowing, the test plants were treated at the one-leaf stage. The compounds of the invention, formulated in the form of wettable powders (WP) or as emulsion concentrates (EC), were then sprayed onto the green parts of the plants as aqueous suspension or emulsion with addition of 0.5% additive at a water application rate of 600 l/ha (converted). After the test plants had been kept in the greenhouse under optimum growth conditions for about 3 weeks, the activity of the preparations was rated visually in comparison to untreated controls. For example, 100% activity=the plants have died, 0% activity=like control plants.
Tables A16 to A19 below show the crop plant compatibilities of selected compounds of the general formula (I) according to Tables I.1 to I.36 at an application rate corresponding to 5 g/ha or 20 g/ha, which were obtained in experiments according to the experimental procedure mentioned above. Here, the observed effects on selected crop plants are stated in comparison to the untreated controls (values in %).

Setaria viridis [1] = assay: Post-emergence herbicidal action; settings: application rate 5 g/ha, rated visually after about 3 weeks vs untreated controls
Procedure, shortened: (§1)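 Post-em spray, one-leaf stage (2–3 wk post-sowing), sandy loam, greenhouse. WP/EC in aqueous suspension/emulsion + 0.5% additive, 600 l/ha water, ≤20 g/ha. Visual % rating ~3 wk vs untreated: 100% dead, 0% like control.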

Digitaria sanguinalis [2] = assay: Post-emergence herbicidal action; settings: rated visually after about 3 weeks vs untreated controls
Procedure, shortened: as §1

Polygonum convolvulus [3] = assay: Post-emergence herbicidal action; settings: application rate 5 g/ha
Procedure, shortened: as §1

Echinochloa crus-galli [4] = assay: Post-emergence herbicidal action; settings: rated visually after about 3 weeks vs untreated controls
Procedure, shortened: as §1

Abutilon theophrasti [5] = assay: Post-emergence herbicidal action; settings: rated visually after about 3 weeks vs untreated controls
Procedure, shortened: as §1

Stellaria media = assay: Post-emergence herbicidal action; settings: application rate 5 g/ha, rated visually after about 3 weeks vs untreated controls
Procedure, shortened: as §1

Hordeum murinum = assay: Post-emergence herbicidal action
Procedure, shortened: as §1

Pharbitis purpurea [6] = assay: Post-emergence herbicidal action; settings: application rate 5 g/ha, rated visually after about 3 weeks vs untreated controls
Procedure, shortened: as §1

Amaranthus retroflexus [7] = assay: Post-emergence herbicidal action; settings: rated visually after about 3 weeks vs untreated controls
Procedure, shortened: as §1

Alopecurus myosuroides [8] = assay: Post-emergence herbicidal action; settings: rated visually after about 3 weeks vs untreated controls
Procedure, shortened: as §1

Matricaria inodora [9] = assay: Post-emergence herbicidal action; settings: rated visually after about 3 weeks vs untreated controls
Procedure, shortened: as §1

Veronica persica [10] = assay: Post-emergence herbicidal action
Procedure, shortened: as §1

Viola tricolor [11] = assay: Post-emergence herbicidal action; settings: application rate 5 g/ha
Procedure, shortened: as §1

Lolium rigidum [12] = assay: Post-emergence herbicidal action; settings: rated visually after about 3 weeks vs untreated controls
Procedure, shortened: as §1

Avena fatua [13] = assay: Post-emergence herbicidal action; settings: rated visually after about 3 weeks vs untreated controls
Procedure, shortened: as §1

Setaria viridis [14] = assay: Pre-emergence herbicidal action; settings: application rate 20 g/ha
From the text: (§2) B. Pre-Emergence Herbicidal Action and Crop Plant Compatibility Seeds of monocotyledonous and dicotyledonous weed plants and crop plants were placed in plastic or organic planting pots and covered with soil. The compounds of the invention, formulated in the form of wettable powders (WP) or as emulsion concentrates (EC), were then applied to the surface of the covering soil as aqueous suspension or emulsion with addition of 0.5% additive at a water application rate equivalent to 600 l/ha (converted). After the treatment, the pots were placed in a greenhouse and kept under good growth conditions for the test plants. After about 3 weeks, the effect of the preparations was scored visually in comparison with untreated controls as percentages. For example, 100% activity=the plants have died, 0% activity=like control plants. Tables B1 to B13 below show the effects of selected compounds of the general formula (I) according to Tables I.1 to I.36 on various harmful plants and at an application rate corresponding to 80 g/ha or less, which were obtained by the experimental procedure mentioned above.

Digitaria sanguinalis [15] = assay: Pre-emergence herbicidal action; settings: application rate 20 g/ha
From the text: as §2

Polygonum convolvulus [16] = assay: Pre-emergence herbicidal action; settings: application rate 20 g/ha
From the text: as §2

Echinochloa crus-galli [17] = assay: Pre-emergence herbicidal action; settings: application rate 20 g/ha
From the text: as §2

Abutilon theophrasti [18] = assay: Pre-emergence herbicidal action; settings: application rate 20 g/ha
From the text: as §2

Pharbitis purpurea [19] = assay: Pre-emergence herbicidal action; settings: application rate 20 g/ha
From the text: as §2

Amaranthus retroflexus [20] = assay: Pre-emergence herbicidal action; settings: application rate 20 g/ha
From the text: as §2

Lolium rigidum [21] = assay: Pre-emergence herbicidal action; settings: application rate 80 g/ha
From the text: as §2

Alopecurus myosuroides [22] = assay: Pre-emergence herbicidal action; settings: application rate 80 g/ha
From the text: as §2

Matricaria inodora [23] = assay: Pre-emergence herbicidal action; settings: application rate 20 g/ha
From the text: as §2

Veronica persica [24] = assay: Pre-emergence herbicidal action; settings: application rate 20 g/ha
From the text: as §2

Avena fatua [25] = assay: Pre-emergence herbicidal action; settings: application rate 80 g/ha
From the text: as §2

Viola tricolor [26] = assay: Pre-emergence herbicidal action; settings: application rate 20 g/ha
From the text: as §2

| Oryza sativa (efficacy in %) (Oryza sativa) [%] | SMILES | Setaria viridis (efficacy in %) (Setaria viridis [1]) [%] | Polygonum convolvulus (efficacy in %) (Polygonum convolvulus [3]) [%] | Abutilon theophrasti (efficacy in %) (Abutilon theophrasti [5]; application rate 5 g/ha) [%] | Stellaria media (efficacy in %) (Stellaria media) [%] | Hordeum murinum (efficacy in %) (Hordeum murinum; application rate 20 g/ha) [%] | Pharbitis purpurea (efficacy in %) (Pharbitis purpurea [6]) [%] | Amaranthus retroflexus (efficacy in %) (Amaranthus retroflexus [7]; application rate 5 g/ha) [%] | Matricaria inodora (efficacy in %) (Matricaria inodora [9]; application rate 5 g/ha) [%] | Viola tricolor (efficacy in %) (Viola tricolor [11]) [%] | Echinochloa crus-galli (efficacy in %) (Echinochloa crus-galli [4]; application rate 5 g/ha) [%] | Alopecurus myosuroides (efficacy in %) (Alopecurus myosuroides [8]; application rate 5 g/ha) [%] | Digitaria sanguinalis (efficacy in %) (Digitaria sanguinalis [2]; application rate 5 g/ha) [%] | Lolium rigidum (efficacy in %) (Lolium rigidum [12]; application rate 20 g/ha) [%] | Veronica persica (efficacy in %) (Veronica persica [10]; application rate 5 g/ha) [%] | Avena fatua (efficacy in %) (Avena fatua [13]; application rate 5 g/ha) [%] | other results |
| --- | --- | --- | --- | --- | --- | --- | --- | --- | --- | --- | --- | --- | --- | --- | --- | --- | --- |
| 20 | Cn1c(C(F)(F)F)cc(=O)n(-c2cc(Sc3cccnc3SCC(=O)OC3COC3)c(Cl)cc2F)c1=O [I.10-115] | 100 | 100 | 100 | 100 | 80 | 100 | 100 | 90 | 100 | – | – | – | – | – | – | Digitaria sanguinalis (efficacy in %) (Digitaria sanguinalis [2]; application rate 20 g/ha): 100%; Echinochloa crus-galli (efficacy in %) (Echinochloa crus-galli [4]; application rate 20 g/ha): 100%; Alopecurus myosuroides (efficacy in %) (Alopecurus myosuroides [8]; application rate 20 g/ha): 80%; Veronica persica (efficacy in %) (Veronica persica [10]; application rate 20 g/ha): 100% |
| 20 | Cn1c(C(F)(F)F)cc(=O)n(-c2cc(Sc3cccnc3SCC(=O)OCC#N)c(Cl)cc2F)c1=O [I.10-176] | 100 | 100 | – | 100 | 80 | 90 | – | – | 100 | 100 | 80 | – | – | – | – | Digitaria sanguinalis (efficacy in %) (Digitaria sanguinalis [2]; application rate 20 g/ha): 100%; Abutilon theophrasti (efficacy in %) (Abutilon theophrasti [5]; application rate 20 g/ha): 100%; Amaranthus retroflexus (efficacy in %) (Amaranthus retroflexus [7]; application rate 20 g/ha): 100%; Matricaria inodora (efficacy in %) (Matricaria inodora [9]; application rate 20 g/ha): 100%; Veronica persica (efficacy in %) (Veronica persica [10]; application rate 20 g/ha): 80% |
| – | COCCOC(=O)COc1ncccc1Oc1cc(-n2c(=O)cc(C(F)(F)F)n(C)c2=O)c(F)cc1Cl [I.15-1] | 100 | 100 | 100 | 100 | 100 | 100 | 100 | 100 | 100 | 100 | 80 | 100 | 100 | 100 | 90 | – |
| – | COCCOCCOC(=O)COc1ncccc1Oc1cc(-n2c(=O)cc(C(F)(F)F)n(C)c2=O)c(F)cc1Cl [I.15-23] | 100 | 100 | 100 | 100 | – | 100 | 100 | 90 | 100 | 100 | – | 100 | – | 100 | 80 | Hordeum murinum (efficacy in %) (Hordeum murinum; application rate 5 g/ha): 80%; Lolium rigidum (efficacy in %) (Lolium rigidum [12]; application rate 5 g/ha): 80%; Alopecurus myosuroides (efficacy in %) (Alopecurus myosuroides [8]; application rate 20 g/ha): 100% |
| 20 | CSCCOC(=O)COc1ncccc1Oc1cc(-n2c(=O)cc(C(F)(F)F)n(C)c2=O)c(F)cc1Cl [I.15-31] | – | – | 100 | – | – | 100 | 100 | 100 | – | – | – | 100 | – | 100 | – | Setaria viridis (efficacy in %) (Setaria viridis [14]): 100%; Digitaria sanguinalis (efficacy in %) (Digitaria sanguinalis [15]): 100%; Polygonum convolvulus (efficacy in %) (Polygonum convolvulus [16]): 100%; Echinochloa crus-galli (efficacy in %) (Echinochloa crus-galli [17]): 100%; Abutilon theophrasti (efficacy in %) (Abutilon theophrasti [18]): 100%; Pharbitis purpurea (efficacy in %) (Pharbitis purpurea [19]): 100%; Amaranthus retroflexus (efficacy in %) (Amaranthus retroflexus [20]): 100%; Lolium rigidum (efficacy in %) (Lolium rigidum [21]): 100%; Alopecurus myosuroides (efficacy in %) (Alopecurus myosuroides [22]): 100%; Matricaria inodora (efficacy in %) (Matricaria inodora [23]): 100%; Veronica persica (efficacy in %) (Veronica persica [24]): 100%; Avena fatua (efficacy in %) (Avena fatua [25]): 100%; Viola tricolor (efficacy in %) (Viola tricolor [26]): 100% |
| – | Cn1c(C(F)(F)F)cc(=O)n(-c2cc(Oc3cccnc3OCC(=O)OCC3CCCO3)c(Cl)cc2F)c1=O (centres unmarked) [I.15-71] | 100 | 100 | 100 | 100 | 100 | 100 | 100 | – | 100 | 100 | 90 | 100 | 100 | 100 | – | Matricaria inodora (efficacy in %) (Matricaria inodora [9]; application rate 20 g/ha): 100%; Avena fatua (efficacy in %) (Avena fatua [13]; application rate 20 g/ha): 80% |
| – | Cn1c(C(F)(F)F)cc(=O)n(-c2cc(Oc3cccnc3OCC(=O)OCC3CCOC3)c(Cl)cc2F)c1=O (centres unmarked) [I.15-72, Tetrahydrofuran-3-ylmethyl [(3-{2-chloro-4-fluoro-5-[3-methyl-2,6-dioxo-4-(trifluoromethyl)-3,6-dihydropyrimidin-1(2H)-yl]phenoxy}pyridin-2-yl)oxy]acetate] | 100 | 100 | 100 | 100 | – | 100 | 100 | 90 | 100 | 100 | 90 | 100 | 100 | 100 | 80 | Hordeum murinum (efficacy in %) (Hordeum murinum; application rate 5 g/ha): 90% |
| 0 | Cn1c(C(F)(F)F)cc(=O)n(-c2cc(Oc3cccnc3OCC(=O)OCc3ccncc3)c(Cl)cc2F)c1=O [I.15-288] | – | – | 100 | – | – | 100 | 100 | 90 | – | 100 | – | – | – | 100 | – | Setaria viridis (efficacy in %) (Setaria viridis [14]): 100%; Digitaria sanguinalis (efficacy in %) (Digitaria sanguinalis [15]): 100%; Polygonum convolvulus (efficacy in %) (Polygonum convolvulus [16]): 100%; Echinochloa crus-galli (efficacy in %) (Echinochloa crus-galli [17]): 80%; Abutilon theophrasti (efficacy in %) (Abutilon theophrasti [18]): 100%; Pharbitis purpurea (efficacy in %) (Pharbitis purpurea [19]): 100%; Amaranthus retroflexus (efficacy in %) (Amaranthus retroflexus [20]): 100%; Lolium rigidum (efficacy in %) (Lolium rigidum [21]): 100%; Alopecurus myosuroides (efficacy in %) (Alopecurus myosuroides [22]): 100%; Matricaria inodora (efficacy in %) (Matricaria inodora [23]): 100%; Veronica persica (efficacy in %) (Veronica persica [24]): 100%; Avena fatua (efficacy in %) (Avena fatua [25]): 100%; Viola tricolor (efficacy in %) (Viola tricolor [26]): 100% |
